Values after ≈ are worked out from the molar mass of the structure shown.
Columns and labels:
Assay type in all cases: cell-based
[1] = tested on: Escherichia Coli MC 4100 AcrAB UPA3r; assay: MIC broth microdilution, E. coli MC 4100 AcrAB UPA3r (ΔAcrAB, UPA resistant); conditions: E. coli AcrAB UPA3^r
[2] = tested on: Pseudomonas aeruginosa PAM 1135; assay: MIC broth microdilution, P. aeruginosa PAM 1135 (high level UPA resistance); conditions: P. aeruginosa PAM 1135 UPA1^r
[3] = tested on: Pseudomonas aeruginosa PAM 1020; assay: MIC broth microdilution, P. aeruginosa PAM 1020 (wild type); conditions: P. aeruginosa PAM 1020
[4] = tested on: Pseudomonas aeruginosa PAM 1154; assay: MIC broth microdilution, P. aeruginosa PAM 1154 (OprM::Hg); conditions: P. aeruginosa PAM 1154 OprM::Hg
[5] = tested on: Pseudomonas aeruginosa PAM 1323; assay: MIC broth microdilution, P. aeruginosa PAM 1323 (medium level UPA resistance)
[6] = tested on: Escherichia Coli MC 4100 AcrAB; assay: MIC broth microdilution, E. coli MC 4100 AcrAB (ΔAcrAB); conditions: E. coli AcrAB
[7] = tested on: Staphylococcus aureus ATCC 29213; assay: MIC broth microdilution, S. aureus ATCC 29213 (wild type); conditions: S. aureus ATCC 29213
Escherichia Coli MC 4100 = assay: MIC broth microdilution, E. coli MC 4100 (wild type); conditions: E. coli MC 4100
[8] = tested on: Staphylococcus aureus 8325-4; assay: MIC broth microdilution, S. aureus 8325-4 (wild type); conditions: S. aureus 8325-4
[9] = tested on: Pasteurella multocida pm002; assay: MIC broth microdilution, P. multocida pm002 (wild type)

Compound	MIC (μg/ml) Broth microdilution [1] [µg/mL]	MIC (μg/ml) Broth microdilution [2] [µg/mL]	MIC (μg/ml) Broth microdilution [3] [µg/mL]	MIC (μg/ml) Broth microdilution [4] [µg/mL]	MIC (μg/ml) Broth microdilution [5] [µg/mL]	MIC (μg/ml) Broth microdilution [6] [µg/mL]	MIC (μg/ml) Broth microdilution [7] [µg/mL]	MIC (μg/ml) Broth microdilution (Escherichia Coli MC 4100) [µg/mL]	MIC (μg/ml) Broth microdilution [8] [µg/mL]	MIC (μg/ml) Broth microdilution [9] [µg/mL]
C[C@H](N)C(=O)N(C)[C@@H](C)[C@H](NC(=O)[C@H](Cc1ccc2ccccc2c1)NC(=O)N[C@@H](Cc1c[nH]c2ccccc12)C(=O)O)C(=O)NC[C@H]1C[C@@H](O)[C@H](n2ccc(=O)[nH]c2=O)O1 [Compound 153]	128 (≈ 152 µM)	>512	128 (≈ 152 µM)	16 (≈ 19 µM)	>512	2 (≈ 2.38 µM)	512 (≈ 610 µM)	512 (≈ 610 µM)	256 (≈ 305 µM)	64 (≈ 76.2 µM)
CC(C)CC(NC(=O)NC(Cc1ccc(O)cc1)C(=O)O)C(=O)NC(C(=O)NCC1CC(O)C(n2ccc(=O)[nH]c2=O)O1)C(C)N(C)C(=O)C(C)N [Compound 161, 1-[5′-[(2S,3S)-N^3-L-Alanyl-N^2-[N-[[(1S)-1-carboxy-4-hydroxyphenethyl)carbamoyl]-L-leucyl]-N^3-methyl-2,3-diaminobutyramido]-3′,5′-dideoxy-α-L-arabinofuranosyl]uracil]	256 (≈ 349 µM)	>512	16 (≈ 21.8 µM)	8 (≈ 10.9 µM)	256 (≈ 349 µM)	32 (≈ 43.7 µM)	>512	>512	>512	512 (≈ 699 µM)
CSCCC(N)C(=O)N(C)C(C)C(NC(=O)C(CCSC)NC(=O)NC(Cc1c[nH]c2ccccc12)C(=O)O)C(=O)NCC1CC(O)C(n2ccc(=O)[nH]c2=O)O1 [Compound 162, 1-[5′-[(2S,3S)-N^2-[N-[[(1S)-1-Carboxy-2-indol-3-ylethyl]carbamoyl]-L-methionyl]-N^3-L-methionyl-N^3-methyl-2,3-diaminobutyramido]-3′,5′-dideoxy-α-L-arabinofuranosyl]uracil]	512 (≈ 614 µM)	256 (≈ 307 µM)	64 (≈ 76.7 µM)	16 (≈ 19.2 µM)	256 (≈ 307 µM)	16 (≈ 19.2 µM)	>512	512 (≈ 614 µM)	>512	512 (≈ 614 µM)
CC(C(NC(=O)C(Cc1ccccc1)NC(=O)NC(Cc1c[nH]c2ccccc12)C(=O)O)C(=O)NCC1CC(O)C(n2ccc(=O)[nH]c2=O)O1)N(C)C(=O)C(N)Cc1ccc(O)cc1 [Compound 163, 1-[5′-[(2S,3S)-N^2-[N-[[(1S)-1-Carboxy-2-indol-3-ylethyl]carbamoyl]-L-phenylalanyl]-N^3-L-tyrosyl-N^3-methyl-2,3-diaminobutyramido]-3′,5′-dideoxy-α-L-arabinofuranosyl]uracil]	512 (≈ 581 µM)	256 (≈ 290 µM)	16 (≈ 18.1 µM)	16 (≈ 18.1 µM)	256 (≈ 290 µM)	4 (≈ 4.54 µM)	>512	512 (≈ 581 µM)	>512	256 (≈ 290 µM)
CN[C@@H](C)[C@H](NC(=O)[C@H](C)NC(=O)N[C@@H](Cc1c[nH]c2ccccc12)C(=O)O)C(=O)NC[C@H]1C[C@@H](O)[C@H](n2ccc(=O)[nH]c2=O)O1 [Compound 165, 1-[5′-[(2S,3S)-N^2-[N-[[(1S)-1-Carboxy-2-indol-3-ylethyl]carbamoyl]-L-alanyl]-N^3-methyl-2,3-diaminobutyramido]-3′,5′-dideoxy-α-L-arabinofuranosyl]uracil]	128 (≈ 199 µM)	>512	>512	128 (≈ 199 µM)	>512	4 (≈ 6.22 µM)	>512	>512	>512	256 (≈ 398 µM)
CSCCC(NC(=O)NC(Cc1c[nH]c2ccccc12)C(=O)O)C(=O)NC(C(=O)NCC1CC(O)C(n2ccc(=O)[nH]c2=O)O1)C(C)N(C)C(=O)C(C)N [Compound 167, 1-[5′-[(2S,3S)-N^3-L-Alanyl-N^2-[N-[[(1S)-1-carboxy-2-indol-3-ylethyl]carbamoyl]-L-methionyl]-N^3-methyl-2,3-diaminobutyramido]-3′,5′-dideoxy-α-L-arabinofuranosyl]uracil]	128 (≈ 165 µM)	>512	512 (≈ 662 µM)	256 (≈ 331 µM)	512 (≈ 662 µM)	4 (≈ 5.17 µM)	>512	512 (≈ 662 µM)	>512	128 (≈ 165 µM)
CSCCC(N)C(=O)N(C)C(C)C(NC(=O)C(C)NC(=O)NC(Cc1c[nH]c2ccccc12)C(=O)O)C(=O)NCC1CC(O)C(n2ccc(=O)[nH]c2=O)O1 [Compound 168, 1-[5′-[(2S,3S)-N^2-[N-[[(1S)-1-Carboxy-2-indol-3-ylethyl]carbamoyl]-L-alanyl]-N^3-L-methionyl-N^3-methyl-2,3-diaminobutyramido]-3′,5′-dideoxy-α-L-arabinofuranosyl]uracil]	256 (≈ 331 µM)	>512	64 (≈ 82.7 µM)	8 (≈ 10.3 µM)	>512	4 (≈ 5.17 µM)	>512	>512	>512	256 (≈ 331 µM)
CC(C)[C@H](NC(=O)N[C@@H](Cc1c[nH]c2ccccc12)C(=O)O)C(=O)N[C@H](C(=O)NC[C@H]1C[C@@H](O)[C@H](n2ccc(=O)[nH]c2=O)O1)[C@H](C)N(C)C(=O)[C@H](C)N [Compound 169, 1-[5′-[(2S,3S)-N^3-L-Alanyl-N^2-[N-[[(1S)-1-carboxy-2-indol-3-ylethyl]carbamoyl]-L-valinyl]-N^3-methyl-2,3-diaminobutyramido]-3′,5′-dideoxy-α-L-arabinofuranosyl]uracil]	32 (≈ 43.1 µM)	>512	128 (≈ 173 µM)	128 (≈ 173 µM)	64 (≈ 86.3 µM)	2 (≈ 2.7 µM)	>512	256 (≈ 345 µM)	>512	128 (≈ 173 µM)
